Assay results from patent US20110054040A1, “Bicyclic Triterpenoid Iripallidal as a Novel Anti-Glioma and Anti-Neoplastic Therapy” (DEPARTMENT OF BIOTECHNOLOGY, priority 2008, published 2011).
Where two headings read alike, the source gives them in different places.

Columns and labels:
RasGRP3 = molecular target: T1, RasGRP3 (Homo sapiens, UniProt Q8IV61); conditions: cited from earlier work
T1 sequence (Q8IV61 1-690): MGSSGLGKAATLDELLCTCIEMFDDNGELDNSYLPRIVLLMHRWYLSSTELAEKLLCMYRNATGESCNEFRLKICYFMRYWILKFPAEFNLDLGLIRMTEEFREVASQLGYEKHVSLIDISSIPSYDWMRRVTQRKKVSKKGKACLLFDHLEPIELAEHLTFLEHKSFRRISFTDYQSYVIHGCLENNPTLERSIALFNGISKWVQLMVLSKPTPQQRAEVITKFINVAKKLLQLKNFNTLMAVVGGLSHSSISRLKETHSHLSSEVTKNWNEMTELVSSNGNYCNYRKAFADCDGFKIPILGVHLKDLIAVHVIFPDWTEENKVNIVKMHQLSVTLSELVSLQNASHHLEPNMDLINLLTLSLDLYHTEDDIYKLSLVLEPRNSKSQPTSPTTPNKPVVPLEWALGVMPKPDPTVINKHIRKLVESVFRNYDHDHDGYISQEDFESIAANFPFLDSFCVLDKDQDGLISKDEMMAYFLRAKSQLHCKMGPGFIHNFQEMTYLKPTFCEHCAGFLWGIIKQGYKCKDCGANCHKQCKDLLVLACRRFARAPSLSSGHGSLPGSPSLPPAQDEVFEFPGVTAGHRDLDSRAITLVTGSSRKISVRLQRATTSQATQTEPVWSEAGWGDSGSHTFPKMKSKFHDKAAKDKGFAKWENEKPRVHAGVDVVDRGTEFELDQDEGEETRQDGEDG

[1] = system: panel of 60 human cancer cell lines; conditions: NCI 60 cell line screen; cited from earlier work
normal human monocytes = assay: MTS cell viability assay, normal human monocytes; type: cell-based; conditions: 24 hours, serum free media
Procedure: In another embodiment normal human monocytes were treated with different concentration of Iripallidal in serum free media for 24 hours and cell viability was assessed using the MTS assay. Values were expressed as a percentage relative to those obtained in controls.
Whole blood (5 ml) was drawn from normal human volunteers and mononuclear cells were separated by Histopaque density gradient centrifugation. Briefly, blood was diluted twice with phosphate buffered saline (PBS) and layered over Histopaque (Sigma, Mo., USA) and centrifuged at 1500 rpm for 20 mins at room temperature. Peripheral blood mononuclear cells (PBMC) were collected carefully at the interface of Histopaque and plasma, diluted five times with PBS and centrifuged at 1500 rpm for 10 mins. PBMC thus pelleted were washed twice with PBS and seeded onto glass petri dishes and allowed to adhere for 3 hrs. Non adherent cells were removed by gentle washing with PBS twice and the adherent monocytes were used in MTS assay.
(§1) Cell viability was assessed using the [3-(4,5-dimethylthiazol-2-yl)-5-(3-carboxymethoxy-phenyl)-2-(4-sulfophenyl)-2H-tetrazolium, inner salt] (MTS) as described earlier. […] After 4 hours of incubation the absorbance reflecting reduction of MTS by viable cells was determined at 490 nm. Values were expressed as a percentage relative to those obtained in controls.

ERK1/2 = conditions: downstream indicator of Ras activation, cited from earlier work
Ras [2] = assay: Ras activity (Ras-GTP pull-down with Raf-1 Ras binding domain) in glioma cells; type: cell-based, human; conditions: Iripallidal 20 μM, compared to the control
Procedure: In another embodiment the Ras activity was performed using a commercially available kit from Upstate Biotechnology (Temecula, Calif., USA). Briefly, glioma cell lines (2×10^6) treated with Iripallidal were lysed and the cleared lysates were incubated with bead-bound RAS binding domain of Raf-1 protein to precipitate Ras-GTP. The precipitates were subjected to SDS-PAGE and Western blotting.
Effect of Iripallidal on the level of GTP-bound Ras. The level of Ras-GTP in protein extracts of control and Iripallidal treated glioma cells was determined by the ability of Ras-GTP to bind to a specific protein domain of Raf in the form of a GST-fusion protein. […] IR1 denotes Iripallidal.

protein kinase C alpha = protein kinase C alpha (Homo sapiens, UniProt P17252); conditions: cited from earlier work
[3] = system: MCF-7, HeLa, HepG2, THP1, HT-29 cells; assay: MTS cell viability assay, breast, cervical, hepatocellular, myeloid leukemia and colon cancer cell lines; type: cell-based, human
Procedure: In another embodiment colon cancer cell line HT29, breast cancer line MCF-7, cervical cancer cell line HeLa, hepatocellular carcinoma cell line HepG2 and acute myeloid leukemic cell line THP1 were treated with different concentration of Iripallidal (in Dimethyl sulphoxide, DMSO) in serum free media for 24 hours and cell viability was assessed using the MTS assay. Values were expressed as a percentage relative to those obtained in controls.
(§2) Glioblastoma cell lines U87MG, A172, T98G, and LN229; breast cancer cell line MCF7, cervical cancer cell line HeLa, hepatocellular carcinoma cell line HepG2, acute myeloid leukemia THP1, colon carcinoma cell line HT-29 and acute myeloid leukemic cell line THP1 were obtained from American Type Culture Collection and cultured in DMEM supplemented with 10% fetal bovine serum. On attaining semi-confluence, cells were switched to serum free media and after 12 hours, cells were treated with different concentration of Iripallidal (in DMSO) in serum free media for 24 hours. […]
as §1, with “salt]” for “salt] (MTS) as described earlier.”

[4] = system: U87MG, A172, LN229 and T98G cells; assay: MTS cell viability assay, glioma cell lines; type: cell-based, human; conditions: 24 hours, serum free media, in vitro
Procedure: In another embodiment GBM cell lines U87MG, A172, T98G, and LN229 were treated with different concentration of Iripallidal (in Dimethyl sulphoxide, DMSO) in serum free media for 24 hours and cell viability was assessed using the [3-(4,5-dimethylthiazol-2-yl)-5-(3-carboxymethoxy-phenyl)-2-(4-sulfophenyl)-2H-tetrazolium, inner salt] (MTS) assay. Values were expressed as percent cell viability relative to control.
as §2, with “hours. Following treatment, the cells were processed for Western blot analysis.” for “hours.”
as §1, with “salt]” for “salt] (MTS) as described earlier.”

Ras [5] = assay: Western blot analysis of Ras expression in glioma cells; type: cell-based, human; conditions: GBM cell lines (A172, U87MG); Iripallidal 20 μM
Procedure: In another embodiment, protein isolated from glioma cells were treated with Iripallidal and electrophoresed on 6% to 10% polyacrylamide gel, Western blotting was performed and expression of Ras determined as described previously.
Glioblastoma cell lines U87MG, A172, T98G, and LN229; breast cancer cell line MCF7, cervical cancer cell line HeLa, hepatocellular carcinoma cell line HepG2, acute myeloid leukemia THP1, colon carcinoma cell line HT-29 and acute myeloid leukemic cell line THP1 were obtained from American Type Culture Collection and cultured in DMEM supplemented with 10% fetal bovine serum. On attaining semi-confluence, cells were switched to serum free media and after 12 hours, cells were treated with different concentration of Iripallidal (in DMSO) in serum free media for 24 hours. Following treatment, the cells were processed for Western blot analysis. DMSO treated cells were used as controls.
Protein from whole cell lysates were isolated as described previously. Twenty to fifty μg of protein isolated from cells treated with Iripallidal was electrophoresed on 6% to 10% polyacrylamide gel. Western blotting was performed and Ras expression was determined as described. The blots were stripped and reprobed with anti-β-actin to determine equivalent loading.

Structure (SMILES)	binding to RasGRP3 (RasGRP3)	binding to RasGRP3 (RasGRP3; listed as NSC 631939)	anti-proliferative activity [1]	viability of normal human monocytes (normal human monocytes)	phosphorylation of ERK1/2 (ERK1/2)	phosphorylation of ERK1/2 (ERK1/2; listed as NSC 631939)	Ras activity (Ras-GTP level) (Ras [2])	binding to protein kinase C alpha (protein kinase C alpha)	proliferation of breast, colon, cervical, liver and myeloid cancer cells ([3]; 24 hours, serum free media)	reduction of proliferation of cancer cell lines ([3]; cancer cell lines, not specified further)	viability of glioblastoma cell lines [4]	Ras levels (Ras [5])
CC1=CC[C@H](C)C(C)(C)C1/C=C/C(C)=C/CC[C@@]1(CO)[C@H](CCCO)/C(=C(/C)C=O)CC[C@]1(C)O (single isomer, unassigned; (-)) [Iripallidal]	binds to RasGRP3	bound	micromolar to nanomolar range	does not effect the viability	induces phosphorylation of ERK1/2 in a Ras dependent manner	induced phosphorylation of ERK1/2	An increase Ras activity was observed	bound	inhibited the proliferation	50-70%	decreased the viability of glioblastoma cell lines significantly	elevated both Ras levels
C=C(/C=C/C=C(/CCC=C(C)C)COC(C)=O)[C@@H]1CC[C@]2([C@H](CCCO)/C(=C(/C)C=O)CC[C@]2(C)O)[C@@H]1O [NSC 631941, reference compound]	bound	–	–	–	induced phosphorylation of ERK1/2	–	–	bound	–	–	–	–
